Test results as given in the NIST ThermoML archive (doi:10.1021/je300487n).
± gives the expanded uncertainty stated by the source.

How the values were obtained:
[1] = refractive index (Na D-line) (dimensionless); details: 101.33 kPa, Liquid, Standard Abbe refractometry
[2] = for viscosity / mass density: 101.33 kPa, Liquid; for viscosity: Concentric cylinders viscometry; for mass density: Vibrating tube method; for surface tension liquid-gas: Drop volume

CC(=O)[O-].CCCC[N+]1(C)CCCC1 [1-butyl-1-methylpyrrolidinium acetate]
Details	mass density, [2] [kg/m3]	refractive index, [1]	surface tension liquid-gas, [2] [mN/m]	viscosity, [2] [mPa·s]
283.15 K	–	1.47263 ± 0.00076	–	–
288.15 K	–	1.47144 ± 0.00075	–	–
293.15 K	–	1.47075 ± 0.00074	–	–
298.15 K	1021.2 ± 2.5	1.46998 ± 0.00075	–	106.63
298.3 K	–	–	37.4 ± 0.6	–
303.15 K	1018.1 ± 2.5	1.46868 ± 0.00077	–	79.92
307.9 K	–	–	36.8 ± 0.6	–
308.15 K	1015.1 ± 2.5	1.46736 ± 0.00077	–	61.34
313.15 K	1012.1 ± 2.5	1.46603 ± 0.00077	–	48.45
318 K	–	–	36.4 ± 0.6	–
318.15 K	1009.2 ± 2.5	1.46461 ± 0.00077	–	38.34
323.15 K	1006.2 ± 2.5	1.4632 ± 0.00077	–	31.1
328.15 K	1003.3 ± 2.4	1.46178 ± 0.00077	–	25.61
328.4 K	–	–	36.1 ± 0.6	–
333.15 K	1000.4 ± 2.4	1.46042 ± 0.00077	–	21.64
338.15 K	997.8 ± 2.4	1.459 ± 0.00078	–	18.05
338.5 K	–	–	35.6 ± 0.6	–
343.15 K	994.9 ± 2.4	1.45755 ± 0.00077	–	15.42
343.6 K	–	–	34.4 ± 0.6	–
348.15 K	992 ± 2.4	1.45619 ± 0.00077	–	13.3
353.15 K	989.2 ± 2.4	1.45479 ± 0.00077	–	11.84
358.15 K	986.3 ± 2.4	–	–	10.16
363.15 K	983.5 ± 2.4	–	–	8.983

CC(=O)[O-].CCCCn1cc[n+](C)c1 [1-butyl-3-methylimidazolium acetate]
Details	mass density, [2] [kg/m3]	refractive index, [1]	surface tension liquid-gas, [2] [mN/m]	viscosity, [2] [mPa·s]
283.15 K	1062.2 ± 0.4	1.49269 ± 0.0005	–	1037.2
288.15 K	1058.9 ± 0.4	1.49158 ± 0.00051	–	658.84
293.15 K	1055.5 ± 0.4	1.49021 ± 0.00052	–	429.11
298 K	–	–	36.4 ± 0.3	–
298.15 K	1052.3 ± 0.4	1.4889 ± 0.00054	–	297.39
303.15 K	1049.2 ± 0.4	1.48725 ± 0.00054	–	209.65
307.8 K	–	–	35.9 ± 0.3	–
308.15 K	1046.1 ± 0.3	1.4858 ± 0.00053	–	152.07
313.15 K	1043 ± 0.3	1.48438 ± 0.00053	–	112.23
318 K	–	–	35.5 ± 0.3	–
318.15 K	1040 ± 0.3	1.48297 ± 0.00059	–	86.07
323.15 K	1037 ± 0.3	1.4806 ± 0.00059	–	66.82
328.15 K	1034 ± 0.3	1.47915 ± 0.00053	–	52.84
328.6 K	–	–	35.1 ± 0.3	–
333.15 K	1031 ± 0.3	1.4777 ± 0.00053	–	42.67
338.15 K	1028 ± 0.3	1.47624 ± 0.00054	–	34.66
339 K	–	–	34.7 ± 0.3	–
343.15 K	1025 ± 0.3	1.47463 ± 0.00054	–	28.69
348.15 K	1022.1 ± 0.3	1.47318 ± 0.00053	–	24.04
353.15 K	1019.1 ± 0.3	1.4718 ± 0.00053	–	20.76
358.15 K	1016.2 ± 0.3	–	–	17.45
363.15 K	1013.3 ± 0.3	–	–	15.08

CC(=O)[O-].CCn1cc[nH+]c1 [1-ethyl-1H-imidazolium acetate]
Details	mass density, [2] [kg/m3]	refractive index, [1]	surface tension liquid-gas, [2] [mN/m]	viscosity, [2] [mPa·s]
283.15 K	1047.2 ± 2.7	1.46347 ± 0.00081	–	7.88
288.15 K	1042.9 ± 2.7	1.4616 ± 0.00082	–	6.669
293.15 K	1038.5 ± 2.6	1.45966 ± 0.00082	–	5.291
298.1 K	–	–	37.8 ± 0.6	–
298.15 K	1034.2 ± 2.6	1.45769 ± 0.00082	–	4.955
303.15 K	1029.9 ± 2.6	1.45576 ± 0.00082	–	4.337
307.8 K	–	–	36.7 ± 0.6	–
308.15 K	1025.6 ± 2.6	1.45379 ± 0.00082	–	3.828
313.15 K	1021.3 ± 2.5	1.45185 ± 0.00082	–	3.225
318.15 K	1017 ± 2.5	1.44985 ± 0.00082	–	3.051
318.5 K	–	–	36.1 ± 0.6	–
323.15 K	1012.7 ± 2.5	1.44791 ± 0.00082	–	2.75
328.15 K	1008.4 ± 2.5	1.44593 ± 0.00082	–	2.492
328.3 K	–	–	35 ± 0.6	–
333.15 K	1004.1 ± 2.5	1.44395 ± 0.00082	–	2.171
338.15 K	999.8 ± 2.4	1.44197 ± 0.00082	–	2.078
339.9 K	–	–	33.7 ± 0.6	–
343.15 K	995.8 ± 2.4	1.44 ± 0.00082	–	1.91
344.2 K	–	–	33.3 ± 0.5	–
348.15 K	991.5 ± 2.4	1.438 ± 0.00082	–	1.762
353.15 K	987.2 ± 2.4	1.43607 ± 0.00082	–	1.547
358.15 K	982.8 ± 2.4	–	–	1.515
363.15 K	978.5 ± 2.3	–	–	1.412

CC(=O)O.CCN(C)C [N,N-dimethylethanamine acetate]
Details	mass density, [2] [kg/m3]	refractive index, [1]	surface tension liquid-gas, [2] [mN/m]	viscosity, [2] [mPa·s]
283.15 K	1028 ± 0.3	1.42303 ± 0.00055	–	26.22
288.15 K	1024 ± 0.3	1.42143 ± 0.00055	–	20.89
293.15 K	1020.1 ± 0.3	1.41983 ± 0.00055	–	16.36
298.15 K	1016.1 ± 0.3	1.41819 ± 0.00055	–	13.97
298.2 K	–	–	33.5 ± 0.3	–
303.15 K	1012.2 ± 0.3	1.41655 ± 0.00055	–	11.68
308.1 K	–	–	32.7 ± 0.3	–
308.15 K	1008.3 ± 0.3	1.41492 ± 0.00055	–	9.888
313.15 K	1004.4 ± 0.3	1.41328 ± 0.00056	–	8.275
318 K	–	–	32.1 ± 0.3	–
318.15 K	1000.5 ± 0.3	1.41156 ± 0.00056	–	7.316
323.15 K	996.8 ± 0.3	1.40991 ± 0.00056	–	6.381
328.15 K	992.9 ± 0.3	1.4082 ± 0.00056	–	5.611
328.4 K	–	–	31.3 ± 0.3	–
333.15 K	989 ± 0.3	1.40649 ± 0.00056	–	4.869
338.15 K	985 ± 0.3	1.40476 ± 0.00056	–	4.427
338.2 K	–	–	30.5 ± 0.3	–
343.15 K	981.1 ± 0.3	1.40312 ± 0.00056	–	3.97
348.15 K	977.2 ± 0.3	1.40138 ± 0.00057	–	3.578
353.15 K	973.1 ± 0.3	1.39963 ± 0.00057	–	3.132
358.15 K	969.1 ± 0.3	–	–	2.943
363.15 K	965.1 ± 0.3	–	–	2.691

CC(=O)[O-].CCn1cc[n+](C)c1 [1-ethyl-3-methylimidazolium acetate]
[1]
Details	refractive index
283.15 K	1.50402 ± 0.00077
288.15 K	1.50267 ± 0.00077
293.15 K	1.50129 ± 0.00077
298.15 K	1.49992 ± 0.00077
303.15 K	1.49854 ± 0.00077
308.15 K	1.49718 ± 0.00077
313.15 K	1.49581 ± 0.00077
318.15 K	1.49447 ± 0.00077
323.15 K	1.49307 ± 0.00077
328.15 K	1.49171 ± 0.00077
333.15 K	1.49035 ± 0.00077
338.15 K	1.48899 ± 0.00077
343.15 K	1.48756 ± 0.00078
348.15 K	1.48613 ± 0.00077
353.15 K	1.48476 ± 0.00077
